From patent US11911346B2, “Orally administrated therapeutic for treating mild cognitive impairment (MCI) and improving human cognitive function” (BrainCare LLC, priority 2021, dated 2024)
Several values for one entry are separate records, joined by “and”; a condition that tells them apart may be missing. Identical values can stand only once.

Tests used:
[1] = test system: cognitive function of participants with Subjective Cognitive Decline; test: Cambridge Brain Sciences (CBS) battery, combined means of all four tests; format: in vivo, human
Description: (§1) The Cambridge Brain Sciences (CBS) included a battery of four tests to measure various aspects of cognition and that affected different regions of the brain. Normal scores for each test ranged from 87 to 113.
(§2) For Cambridge Brain Sciences tests, some responses were flagged as being a highly unusual response (found in less than 1% of Cambridge Brain Sciences normative database). […] These scores were considered to be invalid and excluded from the final analysis. For each participant, the combined mean scores of all four CBS tests were summed for at baseline and at week 8. The participants were then grouped according to these mean baseline score of all four tests as: below average (less than or equal to 100) and average and above (greater than 100).

[2] = test system: concentration and response inhibition of participants with Subjective Cognitive Decline; test: Cambridge Brain Sciences (CBS) Double Trouble test; format: in vivo, human; details: for Double Trouble actual score: Week 4, normal 87-113
Description: as §1
The second test is Double Trouble and addresses concentration and response inhibition. It can detect early Alzheimer's disease and age-related cognitive decline. It has a high reproducibility and is useful in distinguishing impaired and unimpaired aging. The parts of the brain involved include the right prefrontal cortex and dorsolateral region.
The data are presented as mean±standard deviation (S.D.) at baseline, week 4, and week 8. Results from the Cognitive Failures Questionnaire and Cambridge Brain Sciences are compared using the Student's t-test in each intervention group between baseline and week 4 and between baseline and week 8. Significance was defined as p≤0.05. At each time point, the percentage change was compared with the values at baseline. This calculation was only obtained from the means between each time point, and the statistical analysis was not made on these percentage changes.
as §2

[3] = one capsule daily (90 mg BCP), all participants
[4] = one capsule daily (90 mg BCP), baseline mean greater than 100
[5] = one capsule daily (90 mg BCP), baseline mean less than or equal to 100
[6] = two capsules daily (180 mg BCP), all participants
[7] = two capsules daily (180 mg BCP), baseline mean greater than 100
[8] = two capsules daily (180 mg BCP), baseline mean less than or equal to 100
[9] = one capsule daily (90 mg BCP), N=25
[10] = two capsules daily (180 mg BCP), N=22

C=C1CC/C=C(\C)CC[C@@H]2[C@@H]1CC2(C)C [BCP, beta-caryophyllene]
% of subjects with sub-optimal baseline score (less than 87) who improved to a normal score on any test ([1]; one capsule daily (90 mg BCP), during the 8-week study): 31%
Mean of four tests scores at week 8 [1, 3]: 99.8
Percentage change (mean ± S.D.) of mean of four tests scores, baseline to week 8 [1, 3]: 3.6±10.0%
Mean of four tests scores at week 8 [1, 4]: 108.7
Percentage change (mean ± S.D.) of mean of four tests scores, baseline to week 8 [1, 4]: −0.7±9.4%
Mean of four tests scores at week 8 [1, 5]: 96.8
Percentage change (mean ± S.D.) of mean of four tests scores, baseline to week 8 [1, 5]: 5.0±9.8% and 5%
Mean of four tests scores at week 8 [1, 6]: 101.0
Percentage change (mean ± S.D.) of mean of four tests scores, baseline to week 8 [1, 6]: 4.6±12.1%
Mean of four tests scores at week 8 [1, 7]: 104.2
Percentage change (mean ± S.D.) of mean of four tests scores, baseline to week 8 [1, 7]: −1.5% and −1.5 ± 7.5%
Mean of four tests scores at week 8 [1, 8]: 98.8
Percentage change (mean ± S.D.) of mean of four tests scores, baseline to week 8 [1, 8]: 9.0±12.9% and 9%
Double Trouble: number of participants improved between baseline and week 8 [2, 9]: 15
Double Trouble: number of participants with no change between baseline and week 8 [2, 9]: 0
Double Trouble: number of participants worsened between baseline and week 8 [2, 9]: 9
Double Trouble: % of participants with sub-optimal score ([2]; one capsule daily (90 mg BCP), week 8 (56% at baseline)): 44%
Double Trouble actual score ([2]; one capsule daily (90 mg BCP)): 93 ± 15
Double Trouble percentage change ([2]; one capsule daily (90 mg BCP), Week 8, over 8 weeks): +5.3%
Double Trouble: % of participants with no change between baseline and week 8 [2, 10]: (14%)
Double Trouble: number of participants improved between baseline and week 8 [2, 10]: 14
Double Trouble: number of participants with no change between baseline and week 8 [2, 10]: 3
Double Trouble: number of participants worsened between baseline and week 8 [2, 10]: 5
Double Trouble actual score ([2]; two capsules daily (180 mg BCP)): 97.3 ± 15.2
